From US9815835B2, “Substituted polycyclic carbamolypyridone derivative” (priority 2009, dated 2017) come the findings set out here.

The subject of assay [1] is influenza virus. The experiment in a line: microbe, parasite or virus in culture. In kind it is cell-based, influenza virus (MDBK or MDCK cells). As to conditions: unidentified influenza virus, 72 h, read-out: CPE EC50, effective concentration to achieve 50% CPE inhibition, 3 days incubation, WST-8. A general note: Tetrazolium dyes change colour on reduction, which living cells bring about.

Assay [2] addresses cap-dependent endonuclease (RNP fraction containing PB1•PB2•PA complex) (Influenza A virus, UniProt P15659). As to the kind of experiment: biochemical. Conditions: RNP from A/WSN/33 virus, capped Cy3/BHQ2 30mer RNA substrate, 60 minutes at room temperature; read-out: CEN IC50.

Turning to `CC(CN1CCCCC1)N1CN(C2c3ccccc3CCc3ccccc32)n2ccc(=O)c(O)c2C1=O` (stereo not shown) [Example 486], the EC50 in assay [1] came to 72 nM. In addition, the IC50 – broadly, the concentration needed to halve the response being measured – in assay [2] came to 140 nM.

Consider `CC(CN1CCCCC1)N1CN(C2c3ccccc3CSc3ccccc32)n2ccc(=O)c(O)c2C1=O` (stereo not shown) [Example 487], for which the EC50 in assay [1] was 26 nM. Moreover, in assay [2], the IC50 came out at 91 nM.

`CC(CN1CCSCC1)N1CN(C2c3ccccc3CCc3ccccc32)n2ccc(=O)c(O)c2C1=O` (stereo not shown) [Example 488]: the EC50 in assay [1] was found to be 27 nM. Besides, the half-inhibitory concentration (IC50) in assay [2] was 151 nM.

For the molecule `CC(CN1CCSCC1)N1CN(C2c3ccccc3CSc3ccccc32)n2ccc(=O)c(O)c2C1=O` (stereo not shown) [Example 489], the EC50 in assay [1] amounted to 14 nM. In assay [2], the IC50 was 133 nM.

As for `CCN1C(=O)c2c(O)c(=O)ccn2C(C(c2ccccc2)C2CCCCC2)N1CC` (stereo not shown) [Example 493], the EC50 in assay [1] is 101 nM. In addition, the IC50 in assay [2] came out at 112 nM.

With `COCCN1C(=O)c2c(O)c(=O)ccn2C(C(c2ccccc2)c2ccccc2)N1C` (stereo not shown) [Example 495], the EC50 in assay [1] turned out to be 310 nM. Moreover, the concentration for half-maximal inhibition (IC50) in assay [2] turned out to be 277 nM.

Consider `CN1C(=O)c2c(O)c(=O)ccn2C(C(c2ccccc2)c2ccccc2)N1C` (stereo not shown) [Example 496], for which, in assay [1], the EC50 is 177 nM. The concentration for half-maximal inhibition (IC50) in assay [2] was 170 nM.

For the molecule `CN1C(C(c2ccccc2)c2ccccc2)n2ccc(=O)c(O)c2C(=O)N1CCOc1ccc(F)cc1` (stereo not shown) [Example 497], in assay [1], the EC50 worked out at 511 nM. In addition, the IC50 in assay [2] worked out at 215 nM.

Turning to `CCN1C(=O)c2c(O)c(=O)ccn2C(C(c2ccccc2)c2ccccc2)N1CC` (stereo not shown) [Example 498], in assay [1], the EC50 came out at 351 nM. Further, in assay [2], the IC50 turned out to be 161 nM.

In the case of `CC(C)N1CN(C2c3ccccc3CCc3ccccc32)n2cc(CF)c(=O)c(O)c2C1=O` [Example 508], the EC50 in assay [1] turned out to be 56 nM. For the same molecule, the IC50 in assay [2] was 36 nM.

Turning to `CC(C)N1CN(C2c3ccccc3CSc3ccccc32)n2cc(CF)c(=O)c(O)c2C1=O` (stereo not shown) [Example 509], in assay [1], the EC50 came out at 14 nM. The IC50 in assay [2] was 15 nM.

Turning to `COCCC1N(C(C)C)C(=O)c2c(O)c(=O)ccn2N1C1c2ccccc2CCc2ccccc21` (stereo not shown) [Example 511], the EC50 in assay [1] was 15 nM. Further, the IC50 in assay [2] was found to be 175 nM.

On to `COCC1N(C(C)C)C(=O)c2c(O)c(=O)ccn2N1C1c2ccccc2CCc2ccccc21` (stereo not shown) [Example 515], for which the EC50 in assay [1] was 19 nM. In assay [2], the half-inhibitory concentration (IC50) turned out to be 197 nM.

In the case of `CSCCC1N(C(C)C)C(=O)c2c(O)c(=O)ccn2N1C1c2ccccc2CCc2ccccc21` (stereo not shown) [Example 516], the EC50 in assay [1] was found to be 17 nM. The IC50 in assay [2] is 39 nM.

As for `COC(OC)C1N(C(C)C)C(=O)c2c(O)c(=O)ccn2N1C1c2ccccc2CCc2ccccc21` (stereo not shown) [Example 520], in assay [1], the EC50 came to 17 nM. Further, in assay [2], the IC50 is 212 nM.

Regarding `CC(C)N1C(=O)c2c(O)c(=O)ccn2N(C2c3ccccc3CCc3ccccc32)C1CCC(F)(F)F` (stereo not shown) [Example 521], the EC50 in assay [1] is 15 nM. Also, the IC50 in assay [2] is 191 nM.

Consider `COCCCC1N(C(C)C)C(=O)c2c(O)c(=O)ccn2N1C1c2ccc(Cl)cc2CCc2cc(Cl)ccc21` (stereo not shown) [Example 524], for which the EC50 in assay [1] worked out at 26 nM. The IC50 in assay [2] amounted to 57 nM.

For the molecule `CC(C)N1C(=O)c2c(O)c(=O)ccn2N(C2c3ccccc3CCc3ccccc32)C1c1ccc(Cl)cc1` (stereo not shown) [Example 527], the EC50 in assay [1] worked out at 88 nM. In assay [2], the concentration for half-maximal inhibition (IC50) is 127 nM.

In the case of `CC(C)N1C(=O)c2c(O)c(=O)ccn2N(C2c3ccccc3CCc3ccccc32)C1CN` (stereo not shown) [Example 532], the EC50 in assay [1] is 75 nM. In addition, the 50% inhibitory concentration (IC50) in assay [2] was 98 nM.

Consider `CC(C)N1C(=O)c2c(O)c(=O)ccn2N(C2c3ccccc3CCc3ccccc32)C1CN(C)C` (stereo not shown) [Example 536], for which, in assay [1], the EC50 worked out at 27 nM. The concentration for half-maximal inhibition (IC50) in assay [2] was found to be 71 nM.

For the molecule `COC(=O)NCC1N(C(C)C)C(=O)c2c(O)c(=O)ccn2N1C1c2ccccc2CCc2ccccc21` (stereo not shown) [Example 544], the EC50 in assay [1] was found to be 51 nM. In assay [2], the IC50 was determined as 168 nM.

Take `CSCC(=O)NCC1N(C(C)C)C(=O)c2c(O)c(=O)ccn2N1C1c2ccccc2CCc2ccccc21` (stereo not shown) [Example 546]: the EC50 in assay [1] is 124 nM. The concentration for half-maximal inhibition (IC50) in assay [2] is 202 nM.

In the case of `CC(C)N1C(=O)c2c(O)c(=O)ccn2N(C2c3ccccc3CCc3ccccc32)C1CO` (stereo not shown) [Example 547], the EC50 in assay [1] is 27 nM. In assay [2], the IC50 amounted to 32 nM.

In the case of `CC(C)N1C(=O)c2c(O)c(=O)ccn2N(C2c3ccccc3CCc3ccccc32)C1CCO` (stereo not shown) [Example 548], the EC50 in assay [1] is 38 nM. In addition, the IC50 in assay [2] was determined as 86 nM.

Regarding `NCC1N(CCO)C(=O)c2c(O)c(=O)ccn2N1C1c2ccccc2CCc2ccccc21` (stereo not shown) [Example 549], the EC50 in assay [1] is 2100 nM. The IC50 in assay [2] is 76 nM.

In the case of `COCCC1N(CCO)C(=O)c2c(O)c(=O)ccn2N1C1c2ccccc2CCc2ccccc21` (stereo not shown) [Example 552], the EC50 in assay [1] turned out to be 85 nM. For the same molecule, the concentration for half-maximal inhibition (IC50) in assay [2] came to 230 nM.

As for `O=C1c2c(O)c(=O)ccn2N(C2c3ccccc3CCc3ccccc32)C(CO)N1CCO` (stereo not shown) [Example 554], in assay [1], the EC50 was found to be 465 nM. Also, the IC50 in assay [2] is 65 nM.

As for `COC[C@H](C)N1C(=O)c2c(O)c(=O)ccn2N(C2c3ccccc3CCc3ccccc32)[C@@H]1CO` [Example 555], the EC50 in assay [1] came to 12 nM. Also, the half-maximal inhibitory concentration (IC50) in assay [2] worked out at 23 nM.

With `COCCN1C[C@H](C(c2ccccc2)c2ccccc2)n2cc(C)c(=O)c(O)c2C1=O` [Example 557], in assay [1], the EC50 was determined as 2470 nM. The half-inhibitory concentration (IC50) in assay [2] is 281 nM.

With `CN1C[C@H](C2c3ccccc3CSc3ccccc32)n2cc(C(=O)O)c(=O)c(O)c2C1=O` (stereo partly shown) [Example 560], the EC50 in assay [1] was found to be 173 nM. In addition, the concentration for half-maximal inhibition (IC50) in assay [2] came to 27 nM.

As to `CC(C)N1C[C@H](C2c3ccccc3CSc3ccccc32)n2ccc(=O)c(O)c2C1=O` (stereo partly shown) [Example 561], the EC50 in assay [1] stood at 8 nM. Also, in assay [2], the IC50 came out at 73 nM.

In the case of `CN1C[C@H](C2c3ccccc3CSc3ccccc32)n2ccc(=O)c(O)c2C1=O` (stereo partly shown) [Example 562], the EC50 in assay [1] turned out to be 62 nM. Moreover, the 50% inhibitory concentration (IC50) in assay [2] came to 22 nM.

As for `O=C1NCC(C2c3ccccc3CCc3ccccc32)n2ccc(=O)c(O)c21` (stereo not shown) [Example 563], the EC50 in assay [1] amounted to 464 nM. In addition, the concentration for half-maximal inhibition (IC50) in assay [2] worked out at 49 nM.

Turning to `CN1CC(C2c3ccccc3CCc3ccccc32)n2ccc(=O)c(O)c2C1=O` (stereo not shown) [Example 564], the EC50 in assay [1] was 136 nM. Besides, the IC50 in assay [2] amounted to 88 nM.

Consider `CN(C)CCN1CC(C2c3ccccc3CCc3ccccc32)n2ccc(=O)c(O)c2C1=O` (stereo not shown) [Example 565], for which the EC50 in assay [1] came out at 726 nM. Moreover, the half-inhibitory concentration (IC50) in assay [2] came to 154 nM.

Consider `O=C1c2c(O)c(=O)ccn2C(C2c3ccccc3CCc3ccccc32)CN1c1ccccn1` (stereo not shown) [Example 569], for which the EC50 in assay [1] came to 1010 nM. Also, the IC50 in assay [2] was 138 nM.

Turning to `O=C1c2c(O)c(=O)ccn2C(C2c3ccccc3CCc3ccccc32)CN1c1cccnc1` (stereo not shown) [Example 570], in assay [1], the EC50 is 2050 nM. The IC50 in assay [2] was found to be 81 nM.

Take `NN1CC(C2c3ccccc3CCc3ccccc32)n2ccc(=O)c(O)c2C1=O` (stereo not shown) [Example 571]: the EC50 in assay [1] was 320 nM. In addition, in assay [2], the IC50 amounted to 65 nM.

As to `N#CCN1CC(C2c3ccccc3CCc3ccccc32)n2ccc(=O)c(O)c2C1=O` (stereo not shown) [Example 573], in assay [1], the EC50 came to 158 nM. Moreover, in assay [2], the half-inhibitory concentration (IC50) is 55 nM.

For the molecule `N#CCN1C[C@H](C(c2ccccc2)c2ccccc2)n2ccc(=O)c(O)c2C1=O` [Example 574], the EC50 in assay [1] came out at 442 nM. Moreover, the concentration for half-maximal inhibition (IC50) in assay [2] is 165 nM.

On to `CC(C#N)N1CC(C2c3ccccc3CCc3ccccc32)n2ccc(=O)c(O)c2C1=O` (stereo not shown) [Example 575], for which, in assay [1], the EC50 was 87 nM. In addition, the IC50 in assay [2] worked out at 58 nM.

On to `CC(C)N1C[C@H](C2c3ccccc3CCc3ccccc32)n2ccc(=O)c(O)c2C1=O` [Example 576], for which, in assay [1], the EC50 came out at 27 nM. For the same molecule, the 50% inhibitory concentration (IC50) in assay [2] was 63 nM.

Turning to `COCCN1CN(C(c2ccccc2)c2ccccc2)n2c(CC#N)cc(=O)c(O)c2C1=O` [Example 577], the EC50 in assay [1] was determined as 337 nM. In addition, the half-inhibitory concentration (IC50) in assay [2] amounted to 233 nM.

As for `CC(C)N1CN(C(c2ccccc2)c2ccccc2)n2c(N)cc(=O)c(O)c2C1=O` [Example 581], the EC50 in assay [1] worked out at 480 nM. Also, the IC50 in assay [2] is 83 nM.
